{"source": "patent US20160015786A1", "about": "“MOBILIZING AGENTS AND USES THEREFOR” (MATER MEDICAL RESEARCH INSTITUTE LIMITED, priority 2013, published 2016)", "test_system": "competitive repopulating HSC", "experiment": "Long-term competitive repopulation assay of mobilized blood", "type": "in vivo, C57BL/6 mice", "procedure": "FIGS. 3A and 3B are graphical representations showing that Compound X synergizes with G-CSF and Plerixafor to enhance mobilization of competitive repopulating HSCs. CD45.2^+ mice were mobilized with G-CSF for 2 or 4 days with G-CSF alone (filled circles), with G-CSF in combination with Plerixafor for 1 hr (filled triangles), with Compound X for 3 days (filled squares) or with both Plerixafor, 1 hr, and Compound X, 3 days (filled inverted triangles). Blood (20 μL) was transplanted in lethally irradiated recipients together with 200,000 competitive BM cells from CD45.1^+ mice. Proportion of blood CD45.2+ leukocytes at 16 weeks post-transplantation and number of repopulating units per mL of mobilized blood calculated from donor chimerism at 16 weeks post-transplantation from (3A) 2 days treatment with G-CSF and (3B) 4 days treatment with G-CSF. Each dot is a result from one recipient mouse, bars are average. *: p<0.05; ** 0.001<p<0.01; *** p<0.001.\nThis synergistic increase in HSC mobilization was further confirmed in long-term competitive repopulation assays following transplantation of 20 μL mobilized blood in competition with 2×10^5 BM cells from congenic donors. […] The number of mobilized long-term competitive repopulating HSC (measured 16 weeks post-transplant) doubled after treatment with 2 days G-CSF+1 h Plerixafor+3 days Compound X (G2P1X3) compared to G-CSF+Plerixafor (G2P1, p<0.05; FIG. 3A). […] The addition of Compound X to G-CSF (G4X3) increased 6-fold the number of mobilized repopulating units compared to G-CSF (G4) alone (P<0.001; FIG. 3B). The combination of Compound X with G-CSF and Plerixafor (G4P1X3) increased mobilization of repopulating units 3-fold compared to G-CSF+Plerixafor (G4P1) alone (P<0.001; FIG. 3B).\nThe content of mobilized blood samples in competitive repopulating HSC was determined in competitive repopulation assays as previously described (12,17). The day prior to blood harvest, recipient congenic B6.SJL CD45.1^+ female mice were lethally irradiated with 11.0Gy in two split doses 4 hours apart. 50 μL blood samples from 6 mobilized CD45.2^+ C57BL/6 donor mice were pooled within each treatment group and 20 μL blood aliquots were taken from this pool and mixed with 200,000 competitive whole BM cells from untreated B6.SJL CD45.1^+ in a total volume of 200 μL saline, and injected retro-orbitally into each lethally irradiated recipient. Recipients were maintained with antibiotics for the first 3 weeks post-transplant and tail bled 8, 12 and 16 weeks post-transplant to determine CD45.2 (test donor blood) versus CD45.1 (competitive whole BM cells) chimerism in myeloid, B and T lineages by flow cytometry using CD45.1-PE, CD45.2-allophycocyanin (APC), CD3-FITC, B220-allophycocyanin (APC)-cyanin (CY) 7, CD11b-PECY7, Ly6G-Pacific Blue. Content in repopulating units (RU) was calculated as previously described (18-19)."}
{"smiles": "O=C(O)CNC(=O)c1ncc2cc(Sc3ccccc3)ccc2c1O", "note": "[Compound X, [(4-Hydroxy-7-phenylsulfanyl-isoquinoline-3-carbonyl)-amino]-acetic acid]", "values": [{"measurement": "number of mobilized long-term competitive repopulating HSC versus G-CSF+Plerixafor", "setting": "16 weeks post-transplant, G2P1X3 vs G2P1, p<0.05, FIG. 3A", "value": "doubled"}, {"measurement": "competitive repopulating HSC mobilized (CD45.2/CD45.1 chimerism) versus G-CSF+Plerixafor", "setting": "2 days G-CSF+Plerixafor+Compound X (G2P1X3) vs G2P1, p<0.01", "value": 6, "unit": "fold"}, {"measurement": "number of long-term repopulating HSC per mL of blood", "setting": "Compound X in combination with G-CSF and Plerixafor (discussion)", "value": "tripled"}, {"measurement": "increase in mobilization of repopulating units versus G-CSF+Plerixafor", "setting": "G4P1X3 vs G4P1, P<0.001, FIG. 3B", "value": 3, "unit": "fold"}, {"measurement": "increase in number of mobilized repopulating units versus G-CSF alone", "setting": "G-CSF 4 days + Compound X (G4X3) vs G4, P<0.001, FIG. 3B", "value": 6, "unit": "fold"}]}
